US11034718B2, “C-3 novel triterpenone with C-17 reverse amide derivatives as HIV inhibitors” (HETERO LABS LIMITED, priority 2015, dated 2021)
Where two headings read alike, the source gives them in different places.

Tests used:
Type in all cases: cell-based
[1] = test system: HIV-1 strain 92HT599; assay: Antiviral activity against HIV-1 strain 92HT599 in MT2 cells (p24 estimation); settings: HIV-1 92HT599, ~96 hours
How it was run: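 Percent inhibition versus vehicle controls came from p24 quantified in supernatant aliquots. These were taken after ~96 h incubation of compound (DMSO ≤1%) with MT2 cells infected at 10 TCID50/30,000 cells.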

[2] = test system: HIV-1 pNL4-3 WT; assay: Antiviral activity against pNL4-3/WT strain in MT4 cells (p24 estimation); settings: Human immunodeficiency virus 1, MT4, 96 h, read-out: pNL4-3 WT IC50
Method: (§1) Example 78: Evaluation of Compounds Antiviral Activity Against pNL4-3/WT & V7A Strains in MT4 Cells
(§2) MT4 cells were Transfected with HIV-1 Plasmid (pNL4-3-WT & V7A) (Cells were incubating with required number of TCID50 of HIV-1 for 1.5 h at 37° C.). After infection, the infected cells were plated at the concentration of 3×10^4 cells per well in 96 well plate. Test compound was added to the test plate in defined format with the final concentration of DMSO is not more than 1%. Incubation was carried out in CO2 incubator for 4 days for viral infection. At the end of incubation period an aliquot from each well was taken for p24 estimation. p24 estimation was carried out using Advance biosciences kit as per the procedure detailed by supplier.

[3] = test system: HIV-1 pNL4-3 V7A; assay: Antiviral activity against pNL4-3/V7A strain in MT4 cells (p24 estimation); settings: Human immunodeficiency virus 1, MT4, 96 h, read-out: pNL4-3 V7A IC50
Method: as §1, §2

[4] = Human immunodeficiency virus 1, 0% serum binding assay, read-out: IC50 0% serum
[5] = Human immunodeficiency virus 1, 40% serum binding assay, read-out: IC50 40% serum

Compound | IC50 [1, 4] [nM] | IC50 [1, 5] [nM] | IC50 [2] [nM] | IC50 [3] [nM]
Cc1cnc(C(=O)NC(C)(C)C(=O)N[C@@]23CC[C@]4(C)[C@H](CC[C@@H]5[C@@]6(C)CC[C@H](OC(=O)[C@H]7C[C@@H](C(=O)O)C7(C)C)C(C)(C)[C@@H]6CC[C@]54C)C2=C(C(C)C)C(=O)C3)cn1 [Example 7, (1R,3S)-3-((((3aR,5aR,5bR,7aR,9S,11aR,11bR,13aS)-1-isopropyl-5a,5b,8,8,11a-pentamethyl-3a-(2-methyl-2-(5-methylpyrazine-2-carboxamido)propanamido)-2-oxo-3,3a,4,5,5a,5b,6,7,7a,8,9,10,11,11a,11b,12,13,13a-octadecahydro-2H-cyclopenta[a]chrysen-9-yl)oxy)carbonyl)-2,2-dimethylcyclobutane-1-carboxylic acid] | < 3 | < 50 | < 5 | < 10
CC(C)C1=C2[C@H]3CC[C@@H]4[C@@]5(C)CC[C@H](OC(=O)[C@H]6C[C@@H](C(=O)O)C6(C)C)C(C)(C)[C@@H]5CC[C@@]4(C)[C@]3(C)CC[C@@]2(NC(=O)C(C)(C)NC(=O)c2ccc(CN3CCS(=O)(=O)CC3)cc2)CC1=O [Example 58, (1R,3S)-3-((((3aR,5aR,5bR,7aR,9S,11aR,11bR,13aS)-3a-(2-(4-((1,1-dioxidothiomorpholino)methyl)benzamido)-2-methylpropanamido)-1-isopropyl-5a,5b, 8,8,11a-pentamethyl-2-oxo-3,3a,4,5,5a,5b,6,7,7a,8,9,10,11,11a,11b,12,13,13a-octalecahydro-2H-cyclopenta[a]chrysen-9-yl)oxy)carbonyl)-2,2-dimethylcyclobutane-1-carboxylic acid] | < 3 | < 50 | 5.01 to 10 | > 50
CCOC(=O)NC(C)(C)C(=O)N[C@@]12CC[C@]3(C)[C@H](CC[C@@H]4[C@@]5(C)CC[C@H](OC(=O)[C@H]6C[C@@H](C(=O)O)C6(C)C)C(C)(C)[C@@H]5CC[C@]43C)C1=C(C(C)C)C(=O)C2 [Example 64] | < 3 | < 50 | 5.01 to 10 | > 50
Cc1nc(C)c(C(=O)NC(C)(C)C(=O)N[C@@]23CC[C@]4(C)[C@H](CC[C@@H]5[C@@]6(C)CC[C@H](OC(=O)[C@H]7C[C@@H](C(=O)O)C7(C)C)C(C)(C)[C@@H]6CC[C@]54C)C2=C(C(C)C)C(=O)C3)s1 [Example 14, (1R,3S)-3-((((3aR,5aR,5bR,7aR,9S,11aR,11bR,13aS)-3a-(2-(2,4-dimethylthiazole-5-carboxamido)-2-methylpropanamido)-1-isopropyl-5a,5b,8,8,11a-pentamethyl-2-oxo-3,3a,4,5,5a,5b,6,7,7a,8,9,10,11,11a,11b,12,13,13a-octadecahydro-2H-cyclopenta[a]chrysen-9-yl)oxy)carbonyl)-2,2-dimethylcyclobutane-1-carboxylic acid] | < 3 | < 50 | < 5 | 10 to 50
CC(C)C1=C2[C@H]3CC[C@@H]4[C@@]5(C)CC[C@H](OC(=O)[C@H]6C[C@@H](C(=O)O)C6(C)C)C(C)(C)[C@@H]5CC[C@@]4(C)[C@]3(C)CC[C@@]2(NC(=O)C(C)(C)NC(=O)c2csc(N)n2)CC1=O [Example 55, (1R,3S)-3-((((3aR,5aR,5bR,7aR,9S,11aR,11bR,13aS)-3a-(2-(2-aminothiazole-4-carboxamido)-2-methylpropanamido)-1-isopropyl-5a,5b,8,8,11a-pentamethyl-2-oxo-3,3a,4,5,5a,5b,6,7,7a,8,9,10,11,11a,11b,12,13,13a-octadecahydro-2H-cyclopenta[a]chrysen-9-yl)oxy)carbonyl)-2,2-dimethylcyclobutane-1-carboxylic acid] | 3.01 to 10 | 50 to 200 | > 10 | > 50
Cc1ccc(C(=O)NC2(C(=O)N[C@@]34CC[C@]5(C)[C@H](CC[C@@H]6[C@@]7(C)CC[C@H](OC(=O)[C@H]8C[C@@H](C(=O)O)C8(C)C)C(C)(C)[C@@H]7CC[C@]65C)C3=C(C(C)C)C(=O)C4)CCCC2)cn1 [Example 47, (1R,3S)-3-((((3aR,5aR,5bR,7aR,9S,11aR,11bR,13aS)-1-isopropyl-5a,5b,8,8,11a-pentamethyl-3a-(1-(6-methylnicotinamido)cyclopentane-1-carboxamido)-2-oxo-3,3a,4,5,5a,5b,6,7,7a,8,9,10,11,11a,11b,12,13,13a-octadecahydro-2H-cyclopenta[a]chrysen-9-yl)oxy)carbonyl)-2,2-dimethylcyclobutane-1-carboxylic acid] | < 3 | < 50 | < 5 | < 10
Cc1ccc(C(=O)NC(C)(C)C(=O)N[C@@]23CC[C@]4(C)[C@H](CC[C@@H]5[C@@]6(C)CC[C@H](OC(=O)[C@H]7C[C@@H](C(=O)O)C7(C)C)C(C)(C)[C@@H]6CC[C@]54C)C2=C(C(C)C)C(=O)C3)cn1 [Example 61, (1R,3S)-3-((((3aR,5aR,5bR,7aR,9S,11aR,11bR,13aS)-1-isopropyl-5a,5b,8,8,11a-pentamethyl-3a-(2-methyl-2-(6-methylnicotinamido)propanamido)-2-oxo-3,3a,4,5,5a,5b,6,7,7a,8,9,10,11,11a,11b,12,13,13a-octadecahydro-2H-cyclopenta[a]chrysen-9-yl)oxy)carbonyl)-2,2-dimethylcyclobutane-1-carboxylic acid] | < 3 | < 50 | < 5 | 10 to 50
CC(C)C1=C2[C@H]3CC[C@@H]4[C@@]5(C)CC[C@H](OC(=O)[C@@H]6C[C@H](C(=O)O)C6(C)C)C(C)(C)[C@@H]5CC[C@@]4(C)[C@]3(C)CC[C@@]2(NC(=O)C2(NC(=O)c3ccc(Cl)cc3)CC2)CC1=O [Example 41, (1S,3R)-3-((((3aR,5aR,5bR,7aR,9S,11aR,11bR,13aS)-3a-(1-(4-chlorobenzamido)cyclopropane-1-carboxamido)-1-isopropyl-5a,5b,8,8,11a-pentamethyl-2-oxo-3,3a,4,5,5a,5b,6,7,7a,8,9,10,11,11a,11b,12,13,13a-octadecahydro-2H-cyclopenta[a]chrysen-9-yl)oxy)carbonyl)-2,2-dimethylcyclobutane-1-carboxylic acid] | < 3 | < 50 | > 10 | 10 to 50
CC(C)C1=C2[C@H]3CC[C@@H]4[C@@]5(C)CC[C@H](OC(=O)[C@H]6C[C@@H](C(=O)O)C6(C)C)C(C)(C)[C@@H]5CC[C@@]4(C)[C@]3(C)CC[C@@]2(NC(=O)C(C)(C)NC(=O)c2cnn3cccnc23)CC1=O [Example 54, (1R,3S)-3-((((3aR,5aR,5bR,7aR,9S,11aR,11bR,13aS)-1-isopropyl-5a,5b,8,8,11a-pentamethyl-3a-(2-methyl-2-(pyrazolo[1,5-a]pyrimidine-3-carboxamido)propanamido)-2-oxo-3,3a,4,5,5a,5b,6,7,7a,8,9,10,11,11a,11b,12,13,13a-octadecahydro-2H-cyclopenta[a]chrysen-9-yl)oxy)carbonyl)-2,2-dimethylcyclobutane-1-carboxylic acid] | < 3 | < 50 | < 5 | 10 to 50
